Structures can show the parent of a compound that is named as a salt. Where two headings read alike, the source gives them in different places.

The target in one data set is Human Thrombin (Homo sapiens, UniProt P00734). Description: Inhibition of amidase activity of thrombin (Kass). In kind it is biochemical.
A further data set concerns the target T1, factor Xa (Homo sapiens, UniProt P00742).
T1 construct: Human factors X, Xa, IXa, XIa, and XIIa are purchased; purchased Enzyme Research Laboratories, South Bend, Ind
Description: Kass with factor Xa, chromogenic substrate. In kind it is biochemical.

A further data set addresses T2, Bovine trypsin (Bos taurus, UniProt P00760).
T2 construct: Bovine trypsin is purchased; purchased Worthington Biochemicals, Freehold, N.J
T2 sequence (P00760 24-246): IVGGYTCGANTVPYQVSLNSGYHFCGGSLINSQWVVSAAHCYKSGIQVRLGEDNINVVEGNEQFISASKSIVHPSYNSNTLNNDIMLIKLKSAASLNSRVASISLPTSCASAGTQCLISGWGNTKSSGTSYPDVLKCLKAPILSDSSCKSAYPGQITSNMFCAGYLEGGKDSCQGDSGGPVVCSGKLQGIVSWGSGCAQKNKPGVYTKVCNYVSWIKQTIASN
Put plainly: Kass with trypsin, chromogenic substrate. It is filed as biochemical.

In the next data set the target is T3, Human plasmin (Homo sapiens, UniProt P00747).
T3 construct: Human plasmin is purchased; purchased Boehringer Mannheim, Indianapolis, Ind
T3 sequence (P00747 97-810): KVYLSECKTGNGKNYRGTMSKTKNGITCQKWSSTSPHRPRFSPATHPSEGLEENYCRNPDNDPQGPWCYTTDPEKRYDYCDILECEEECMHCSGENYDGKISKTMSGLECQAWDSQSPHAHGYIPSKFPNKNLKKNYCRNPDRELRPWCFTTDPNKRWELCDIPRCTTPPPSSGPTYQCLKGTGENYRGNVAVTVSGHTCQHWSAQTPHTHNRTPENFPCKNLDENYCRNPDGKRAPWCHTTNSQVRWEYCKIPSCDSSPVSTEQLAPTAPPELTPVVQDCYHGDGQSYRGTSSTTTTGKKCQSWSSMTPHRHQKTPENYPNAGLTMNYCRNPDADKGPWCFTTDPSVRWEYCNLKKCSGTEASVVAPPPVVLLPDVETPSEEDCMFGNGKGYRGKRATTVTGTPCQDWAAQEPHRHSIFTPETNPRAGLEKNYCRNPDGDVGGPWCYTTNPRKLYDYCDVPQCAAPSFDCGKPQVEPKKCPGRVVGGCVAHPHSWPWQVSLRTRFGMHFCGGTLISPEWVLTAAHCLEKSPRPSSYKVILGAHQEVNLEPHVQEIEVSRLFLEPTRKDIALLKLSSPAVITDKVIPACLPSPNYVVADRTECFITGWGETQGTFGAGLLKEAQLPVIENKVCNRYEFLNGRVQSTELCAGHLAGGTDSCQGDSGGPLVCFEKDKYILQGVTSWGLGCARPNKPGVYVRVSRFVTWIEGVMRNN
T3 sequence (P00747 97-580 partner limits assumed): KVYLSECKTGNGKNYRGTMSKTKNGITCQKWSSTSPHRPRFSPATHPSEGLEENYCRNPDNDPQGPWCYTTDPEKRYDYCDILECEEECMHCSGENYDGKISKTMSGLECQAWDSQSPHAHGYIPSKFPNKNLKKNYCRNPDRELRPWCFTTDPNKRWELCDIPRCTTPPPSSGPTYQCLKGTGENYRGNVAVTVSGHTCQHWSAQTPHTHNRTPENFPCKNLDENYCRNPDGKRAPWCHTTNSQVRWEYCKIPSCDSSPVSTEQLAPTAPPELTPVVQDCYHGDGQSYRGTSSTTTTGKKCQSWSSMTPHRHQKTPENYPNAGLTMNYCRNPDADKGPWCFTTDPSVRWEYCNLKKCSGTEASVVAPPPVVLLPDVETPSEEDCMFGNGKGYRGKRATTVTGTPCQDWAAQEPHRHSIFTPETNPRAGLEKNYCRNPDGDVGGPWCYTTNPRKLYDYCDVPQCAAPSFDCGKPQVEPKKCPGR
Put plainly: Kass with plasmin, chromogenic substrate. It is filed as biochemical.

In another data set the target is T4, t-PA (Homo sapiens, UniProt P00750).
T4 construct: purchased American Diagnostica, Greenwich, Conn
T4 sequence (P00750 36-562): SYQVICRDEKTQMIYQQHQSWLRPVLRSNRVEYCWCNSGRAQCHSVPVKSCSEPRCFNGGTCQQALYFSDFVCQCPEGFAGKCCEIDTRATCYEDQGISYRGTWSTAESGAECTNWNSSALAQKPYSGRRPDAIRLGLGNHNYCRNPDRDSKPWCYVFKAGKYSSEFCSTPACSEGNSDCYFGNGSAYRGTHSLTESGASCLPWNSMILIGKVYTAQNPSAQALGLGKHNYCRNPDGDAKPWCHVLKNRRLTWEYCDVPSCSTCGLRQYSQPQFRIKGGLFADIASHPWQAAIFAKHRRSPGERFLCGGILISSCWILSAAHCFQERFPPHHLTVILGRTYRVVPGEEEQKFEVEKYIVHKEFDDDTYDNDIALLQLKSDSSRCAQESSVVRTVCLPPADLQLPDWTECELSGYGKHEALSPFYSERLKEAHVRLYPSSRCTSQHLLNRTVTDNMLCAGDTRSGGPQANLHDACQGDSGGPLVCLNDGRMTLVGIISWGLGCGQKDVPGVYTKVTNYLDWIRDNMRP
Description: Kass with t-PA, chromogenic substrate. In kind it is biochemical. Conditions: substrate H-D-Ile-Pro-Arg-p-nitroanilide.

Data set [1] relates to Human plasma. Put plainly: Human plasma anticoagulation, thrombin time (TT). Conditions: concentration required to double the thrombin time, linear extrapolation. It is filed as biochemical. The method in brief: (§1)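 Compound was spiked over a wide concentration range into citrated human plasma, and clotting times were read on a coagulation instrument. PT was started with saline plus Thromboplastin-C. APTT used 120 s preincubation with Actin, then 0.02M CaCl2. TT used saline plus bovine thrombin (10 NIH units/mL). Doubling concentrations were obtained by linear extrapolation.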

The nature of data set [2]: Index of bioavailability (% Relative Activity, plasma TT AUC oral vs i.v.). Conditions: dose-adjusted AUC of plasma TT, p.o. vs i.v. bolus. In kind it is in vivo. On the procedure: Parke Davis) at 37° C. […] Assays are done in duplicate and averaged. […] Each sample population represented alternating sequential time points.
Data set [3] concerns Human plasma. Description: Human plasma anticoagulation, activated partial thromboplastin time (APTT). Conditions: concentration required to double the APTT, linear extrapolation. It is filed as biochemical. The essentials: as §1
In data set [4] the test system is Human plasma. Description: Human plasma anticoagulation, prothrombin time (PT). It is filed as biochemical. Conditions: concentration required to double the PT, linear extrapolation. The essentials: as §1

T1 sequence (P00742 235-488 limits assumed): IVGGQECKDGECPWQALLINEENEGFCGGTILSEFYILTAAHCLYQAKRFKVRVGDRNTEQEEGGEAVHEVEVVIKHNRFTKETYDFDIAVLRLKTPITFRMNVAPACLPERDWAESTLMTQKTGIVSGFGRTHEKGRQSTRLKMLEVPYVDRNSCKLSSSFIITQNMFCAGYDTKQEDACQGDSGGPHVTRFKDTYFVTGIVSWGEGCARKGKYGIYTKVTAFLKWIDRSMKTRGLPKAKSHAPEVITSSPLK
T1 sequence (P00742 41-179 partner limits assumed): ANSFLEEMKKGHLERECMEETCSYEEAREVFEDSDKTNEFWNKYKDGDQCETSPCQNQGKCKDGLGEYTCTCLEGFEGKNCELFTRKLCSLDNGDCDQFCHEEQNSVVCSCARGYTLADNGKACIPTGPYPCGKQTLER

`CCS(=O)(=O)N[C@H](Cc1ccccc1)C(=O)N1CCC[C@H]1C(=O)NCCCCNC(=N)N` [Example 1, EtSO2 -D-Phe-Pro-Agm.HCl]: at Human Thrombin, the “Kass Human Thrombin” value is 3.3. The “Kass Xa” value on factor Xa was 0.0017. Also, the “Kass Trypsin” value at Bovine trypsin was determined as 0.38. Also, the “Kass Plasmin” value at Human plasmin was 0.010. Further, the “Kass t-PA” value on t-PA was 0.082 × 10^6 (L/mole). The “Human Plasma Anticoagulation 2× Clotting time TT” value with Human plasma [1] is listed as 250 ng/mL. In addition, the “% oral/i.v. activity (Rat)” value in [2] was 8%.

For “HOOCCH2 -D-Phe-Pro-p-NHCH2 C6 H4 C(NH)NH2.HCl [Example 46]”, on Human Thrombin, the “Kass Human Thrombin” value is on record as 240. On factor Xa, the “Kass Xa” value is reported as 0.07. In addition, the “Kass Trypsin” value at Bovine trypsin (substrate N-Benzoyl-Phe-Val-Arg-p-nitroanilide) is reported as 48 × 10^6 (L/mole). In addition, the “Kass Plasmin” value at Human plasmin is 0.13. Besides, the “Kass t-PA” value at t-PA is recorded as 0.01 × 10^6 (L/mole). In addition, the “Human Plasma Anticoagulation 2× Clotting time TT” value with Human plasma [1] is on record as 2 ng/mL. In addition, the “Human Plasma Anticoagulation 2× Clotting time APTT” value in the data set on Human plasma [3] is listed as 67 ng/mL. Further, the “Human Plasma Anticoagulation 2× Clotting time PT” value with Human plasma [4] is 77 ng/mL.

These data come from US5707966A, “Antithrombotic agents” (Eli Lilly and Company, priority 1995, dated 1998).
